ChEMBL document CHEMBL1201862, “PubChem BioAssay data set” (2004)
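Growth conditions: 96-well plates. Treatment: test compound, 48 hours, 5 concentrations. Analysis: linear interpolation between bracketing concentrations; unreached endpoints set to highest concentration. The concentration for 50% growth inhibition is given as GI50.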 Active and inactive are the calls of the source. Rule as the data show it: active = GI50 up to about 1.1 µM and inactive = higher.

Assays:
Experiment in all cases: NCI anticancer screen, dose series, 48 h
[1] = tested on: KM12
[2] = tested on: SN12C
[3] = tested on: IGROV-1
[4] = tested on: OVCAR-3
[5] = tested on: K562
[6] = tested on: UO-31
[7] = tested on: NCI-H226
[8] = tested on: SK-OV-3
[9] = tested on: EKVX
[10] = tested on: HCC 2998
[11] = tested on: MCF7
[12] = tested on: MDA-N
[13] = tested on: SF-539
[14] = tested on: UACC-62
[15] = tested on: NCI-H522
[16] = tested on: M14
[17] = tested on: MDA-MB-435
[18] = tested on: CCRF-CEM
[19] = tested on: 786-0
[20] = tested on: Malme-3M
[21] = tested on: HT-29
[22] = tested on: NCI/ADR-RES
[23] = tested on: SK-MEL-28
[24] = tested on: OVCAR-5
[25] = tested on: ACHN
[26] = tested on: OVCAR-8
[27] = tested on: HCT-116
[28] = tested on: A498
[29] = tested on: SW-620
[30] = tested on: RXF 393
[31] = tested on: MOLT-4
[32] = tested on: SK-MEL-5
[33] = tested on: BT-549
[34] = tested on: NCI-H23
[35] = tested on: SR
[36] = tested on: DU-145
[37] = tested on: HCT-15
[38] = tested on: SF-268
[39] = tested on: RPMI-8226
[40] = tested on: SNB-75
[41] = tested on: PC-3
[42] = tested on: SNB-19
[43] = tested on: UACC-257
[44] = tested on: LOX IMVI
[45] = tested on: HOP-62
[46] = tested on: COLO 205
[47] = tested on: HOP-92
[48] = tested on: HL-60
[49] = tested on: Hs-578T
[50] = tested on: A549
[51] = tested on: T47D
[52] = tested on: SF-295
[53] = tested on: CAKI-1
[54] = tested on: SK-MEL-2
[55] = tested on: OVCAR-4

CCC(=O)Nc1ccc(NCC(=O)Nc2ccc(Cl)cc2)cc1 was tested, and the GI50 [1] was 12.7 µM (inactive), the GI50 [2] was 17.1 µM (inactive) and the GI50 [3] was 18.4 µM (inactive). The GI50 [4] was 15.7 µM (inactive), the GI50 [5] was 24 µM (inactive) and the GI50 [6] was 22.3 µM (inactive). The GI50 [7] was 18.2 µM (inactive), the GI50 [8] was 16.9 µM (inactive) and the GI50 [9] was 14 µM (inactive). For the same molecule, the GI50 [10] was 13.2 µM (inactive), the GI50 [11] was 14.3 µM (inactive) and the GI50 [12] was 17.2 µM (inactive). For the same molecule, the GI50 [13] was 18.1 µM (inactive), the GI50 [14] was 12.4 µM (inactive) and the GI50 [15] was 15 µM (inactive). For the same molecule, the GI50 [16] was 15.3 µM (inactive), the GI50 [17] was 15.7 µM (inactive) and the GI50 [18] was 12.5 µM (inactive). For the same molecule, the GI50 [19] was 17.2 µM (inactive), the GI50 [20] was 19.7 µM (inactive) and the GI50 [21] was 10.6 µM (inactive). For the same molecule, the GI50 [22] was 33.2 µM (inactive), the GI50 [23] was 19.9 µM (inactive) and the GI50 [24] was 13.9 µM (inactive). For the same molecule, the GI50 [25] was 13.3 µM (inactive), the GI50 [26] was 27.5 µM (inactive) and the GI50 [27] was 14.4 µM (inactive). The GI50 [28] was 17.7 µM (inactive), the GI50 [29] was 24.7 µM (inactive) and the GI50 [30] was 16.5 µM (inactive). For the same molecule, the GI50 [31] was 21 µM (inactive), the GI50 [32] was 15.8 µM (inactive) and the GI50 [33] was 21.9 µM (inactive). For the same molecule, the GI50 [34] was 18.5 µM (inactive), the GI50 [35] was 21.3 µM (inactive) and the GI50 [36] was 17.9 µM (inactive). For the same molecule, the GI50 [37] was 14.4 µM, the GI50 [38] was 22.6 µM (inactive) and the GI50 [39] was 21.2 µM (inactive). For the same molecule, the GI50 [40] was 25.5 µM (inactive), the GI50 [41] was 15.1 µM (inactive) and the GI50 [42] was 19.8 µM (inactive). The GI50 [43] was 16.6 µM (inactive), the GI50 [44] was 13.1 µM (inactive) and the GI50 [45] was 13.7 µM (inactive). For the same molecule, the GI50 [46] was 16.9 µM (inactive), the GI50 [47] was 17.6 µM (inactive) and the GI50 [48] was 14.1 µM (inactive). For the same molecule, the GI50 [49] was 37 µM (inactive), the GI50 [50] was 19.7 µM (inactive) and the GI50 [51] was 12.8 µM (inactive). For the same molecule, the GI50 [52] was 14.4 µM (inactive), the GI50 [53] was 14.3 µM (inactive) and the GI50 [54] was 14.8 µM (inactive). The GI50 [55] was 14 µM (inactive).
